In patent US20150371009A1, “DRUG IDENTIFICATION MODELS AND METHODS OF USING THE SAME TO IDENTIFY COMPOUNDS TO TREAT DISEASE” (priority 2014, published 2015):

How the values were obtained:
[1] = test system: SK-BR-3 breast cancer cell line (ER−); experiment: In vitro cell line proliferation assay (MTS), SKBR3; assay type: cell-based; conditions: 96 hours; for inhibition of cell line proliferation: ER− SKBR3, escalating doses
Description: (§1) In vitro cell line proliferation assays. MCF7 and SK-BR-3 breast cancer cell lines were provided by the American Type Culture Collections (ATCC; Manassas, Va.) and cultured in complete medium (high glucose DMEM supplemented with 10% fetal bovine serum, L-glutamine, and pen/strep antibiotics). Drugs were purchased from Sigma-Aldrich (St. Louis, Mo.). Proliferation assays were performed as previously described with minor modifications. Cells were seeded at 5×10^3 cells per well in a 96 well plate in the morning. […] The plates were incubated at 37° C./5% CO2 for 96 hours. Cell proliferation was analyzed using MTS reagent (Promega; Madison, Wis.) according to manufacturer's protocol.
(§2) Tamoxifen was selected as a currently used breast cancer drug for comparison. […] Cell proliferation was measured using the MTS assay according to manufacturer's protocol.

[2] = test system: MCF7 breast cancer cell line (ER+); experiment: In vitro cell line proliferation assay (MTS), MCF7; assay type: cell-based; conditions: 96 hours; for inhibition of cell line proliferation: ER+ MCF7, escalating doses
Description: as §1, §2

[3] = patients; donepezil doses up to 23 mg/day; cited from earlier work

Row | Compound | inhibition of cell line proliferation [1] | IC50 ([1]; ER− SKBR3 cells, complete medium, MTS) [µM] | inhibition of cell line proliferation [2] | IC50 ([2]; ER+ MCF7 cells, complete medium, MTS) [µM] | side effects / worst adverse drug reactions [3]
1 | 4-hydroxytamoxifen [Drug 4OHtam] | dose dependent inhibition | 55.7 ± 4.2 | dose dependent inhibition | 31.2 ± 4.9 | –
2 | COc1cc2c(cc1OC)C(=O)C(CC1CCN(Cc3ccccc3)CC1)C2 (racemic) [Donepezil, (RS)-2-[(1-benzyl-4-piperidyl)methyl]-5,6-dimethoxy-2,3-dihydroinden-1-one] | dose dependent inhibition | – | dose dependent inhibition | – | –
3 | CC/C(=C(\c1ccccc1)c1ccc(OCCN(C)C)cc1)c1ccccc1 [Tamoxifen] | – | – | – | – | severe side effects including the development of endometrial cancer
